The results in this text go back to publication PMC6197744, “Triazolo[4,5-d]pyrimidines as Validated General Control Nonderepressible 2 (GCN2) Protein Kinase Inhibitors Reduce Growth of Leukemia Cells” (Computational and Structural Biotechnology Journal, 2018).

SMILES strings stand for the structures.

Assay [1] addresses standard panel of 50 protein kinases. Put plainly: Broad kinase panel screen, whole panel. The class given is binding. The following applies: 0.5 μM. The method, then:
(§1) Compounds 1–9 were screened in a radiometric […] kinase assay against human GCN2 and other kinases involved in the UPR and ISR pathways (Table 1). […] The most soluble of the potent tool compounds (1 and 2) were selected for in vitro cell-based assays where the phosphorylation of eIF2α (p-eIF2α) was used as a readout for GCN2 inhibition.
(§2) Compound 2 was screened against a standard panel of 50 protein kinases by Luceome Biotechnologies (Tucson, AZ). In brief, Compound 2 was dissolved and diluted in DMSO to a concentration of 12.5 μM from a 10 mM stock solution. As a control, compound 2 was evaluated for false positive against split-luciferase. For kinase assays, each C-terminal half of firefly luciferase linked kinase (Cfluc-Kinase) was translated along with the coiled coil Fos attached to the N-terminal fragment (Nfluc) (Fos-Nfluc) using rabbit reticulocyte lysate at 30 °C for 90 min. 24 µL aliquot of this lysate containing 1 µL of either DMSO or Compound 2 (at a final concentration 0.5 μM) was incubated for 30 minutes at room temperature followed by 1 hour incubation in the presence of a kinase specific probe. Finally, 80 µL of luciferin assay reagent was added and luminescence was immediately measured on a luminometer. Compound 2 was screened in duplicate against each kinase.
(§3) The % Inhibition and % Activity Remaining was calculated using the following equations: […]

The target of a further assay is T1, ABL1 (Homo sapiens, UniProt P00519).
T1 construct: purchased Luceome Biotechnologies
Put plainly: Broad kinase panel screen (split-luciferase). The format is binding. The following applies: ABL1, 0.5 uM. The method, then: as §2, §3

Another assay concerns the target T2, MAP3K10 /MLK2 (Homo sapiens, UniProt Q02779).
T2 construct: purchased Luceome Biotechnologies
In words: Broad kinase panel screen (split-luciferase). The following applies: MAP3K10 /MLK2, 0.5 uM. The format is binding. The method, then: as §2, §3

For the next assay, the target named is T3, FLT3 (Homo sapiens, UniProt P36888).
T3 construct: purchased Luceome Biotechnologies
In words: Broad kinase panel screen (split-luciferase). The format is binding. The following applies: FLT3, 0.5 uM. The method, then: as §2, §3

A further assay deals with T4, PKX/PRKX (Homo sapiens, UniProt P51817).
T4 construct: purchased Luceome Biotechnologies
In words: Broad kinase panel screen (split-luciferase). The format is binding. As for the experimental part: as §2, §3

In another assay the target is T5, KIT (Homo sapiens, UniProt P10721).
T5 construct: purchased Luceome Biotechnologies
Put plainly: Broad kinase panel screen (split-luciferase). The format is binding. As for the experimental part: as §2, §3

For a further assay, the target named is T6, MUSK (Homo sapiens, UniProt O15146).
T6 construct: purchased Luceome Biotechnologies
In words: Broad kinase panel screen (split-luciferase). The format is binding. The method, then:
as §2, §3

For another assay, the target named is T7, MST2 (Homo sapiens, UniProt Q13188).
T7 construct: purchased Luceome Biotechnologies
Put plainly: Broad kinase panel screen (split-luciferase). The class given is binding. The following applies: MST2, 0.5 uM. As for the experimental part: as §2, §3

The target in another assay is T8, PDGFRB (Homo sapiens, UniProt P09619).
T8 construct: purchased Luceome Biotechnologies
Put plainly: Broad kinase panel screen (split-luciferase). The format is binding. As for the experimental part: as §2, §3

The target in another assay is T9, SRC (Homo sapiens, UniProt P12931).
T9 construct: purchased Luceome Biotechnologies
In words: Broad kinase panel screen (split-luciferase). The format is binding. As for the experimental part: as §2, §3

The target in a further assay is T10, FLT1/VEGFR1 (Homo sapiens, UniProt P17948).
T10 construct: purchased Luceome Biotechnologies
In words: Broad kinase panel screen (split-luciferase). The class given is binding. The following applies: FLT1/VEGFR1, 0.5 uM. As for the experimental part: as §2, §3

For a further assay, the target named is T11, PKA/PRKACA (Homo sapiens, UniProt P17612).
T11 construct: purchased Luceome Biotechnologies
In words: Broad kinase panel screen (split-luciferase). The class given is binding. The method, then: as §2, §3

The target of a further assay is T12, AAK1 (Homo sapiens, UniProt Q2M2I8).
T12 construct: purchased Luceome Biotechnologies
Put plainly: Broad kinase panel screen (split-luciferase). The format is binding. The following applies: AAK1, 0.5 uM. The method, then:
as §2, §3

Another assay deals with T13, PKCe/PRKCE (Homo sapiens, UniProt Q02156).
T13 construct: purchased Luceome Biotechnologies
In words: Broad kinase panel screen (split-luciferase). The class given is binding. As for the experimental part:
as §2, §3

The target of the next assay is T14, MARK1 (Homo sapiens, UniProt Q9P0L2).
T14 construct: purchased Luceome Biotechnologies
In words: Broad kinase panel screen (split-luciferase). The format is binding. The following applies: MARK1, 0.5 uM. The method, then: as §2, §3

The target in the next assay is T15, SIK1/SNF1LK (Homo sapiens, UniProt P57059).
T15 construct: purchased Luceome Biotechnologies
In words: Broad kinase panel screen (split-luciferase). The class given is binding. The method, then:
as §2, §3

Another assay concerns the target T16, human GCN2 (Homo sapiens, UniProt Q9P2K8).
T16 construct: purchased Reaction Biology Corporation (Malvern, PA)
Put plainly: radiometric HotSpot kinase assay. The format is biochemical. The following applies: ATP at the ATP Km of GCN2; means of two independent experiments. As for the experimental part:
as §1
In vitro compound profiling for recombinant GCN2, PERK, HRI, PKR, or IRE1 kinases were performed at Reaction Biology Corporation (Malvern, PA) using the HotSpot kinase assay. Briefly, all compounds provided for testing were dissolved in 10 mM DMSO stock solutions. Serial dilutions were conducted by epMotion 5070 in DMSO. Specific kinase/substrate mixtures and required cofactors were prepared in reaction buffer (20 mM Hepes (pH 7.5), 10 mM MgCl2, 1 mM EGTA, 0.02% Brij35, 0.02 mg/ml BSA, 0.1 mM Na3VO4, 2 mM DTT, 1% DMSO). Compounds were added to the kinase reaction mixture by Acoustic technology (Echo550; nanoliter range) and incubated for 20 min at room temperature. The kinase reaction was initiated by adding ^33P ATP to a final concentration of 10 μM for single point kinase activity reading or to the ATP Km of GCN2 for IC50 readings. The reaction was incubated or 2 h at room temperature and kinase activity was detected by filter-binding method. IC50 values and curves were generated with GraphPad Prism 7 (GraphPad software).

T1 sequence (P00519 whole entry): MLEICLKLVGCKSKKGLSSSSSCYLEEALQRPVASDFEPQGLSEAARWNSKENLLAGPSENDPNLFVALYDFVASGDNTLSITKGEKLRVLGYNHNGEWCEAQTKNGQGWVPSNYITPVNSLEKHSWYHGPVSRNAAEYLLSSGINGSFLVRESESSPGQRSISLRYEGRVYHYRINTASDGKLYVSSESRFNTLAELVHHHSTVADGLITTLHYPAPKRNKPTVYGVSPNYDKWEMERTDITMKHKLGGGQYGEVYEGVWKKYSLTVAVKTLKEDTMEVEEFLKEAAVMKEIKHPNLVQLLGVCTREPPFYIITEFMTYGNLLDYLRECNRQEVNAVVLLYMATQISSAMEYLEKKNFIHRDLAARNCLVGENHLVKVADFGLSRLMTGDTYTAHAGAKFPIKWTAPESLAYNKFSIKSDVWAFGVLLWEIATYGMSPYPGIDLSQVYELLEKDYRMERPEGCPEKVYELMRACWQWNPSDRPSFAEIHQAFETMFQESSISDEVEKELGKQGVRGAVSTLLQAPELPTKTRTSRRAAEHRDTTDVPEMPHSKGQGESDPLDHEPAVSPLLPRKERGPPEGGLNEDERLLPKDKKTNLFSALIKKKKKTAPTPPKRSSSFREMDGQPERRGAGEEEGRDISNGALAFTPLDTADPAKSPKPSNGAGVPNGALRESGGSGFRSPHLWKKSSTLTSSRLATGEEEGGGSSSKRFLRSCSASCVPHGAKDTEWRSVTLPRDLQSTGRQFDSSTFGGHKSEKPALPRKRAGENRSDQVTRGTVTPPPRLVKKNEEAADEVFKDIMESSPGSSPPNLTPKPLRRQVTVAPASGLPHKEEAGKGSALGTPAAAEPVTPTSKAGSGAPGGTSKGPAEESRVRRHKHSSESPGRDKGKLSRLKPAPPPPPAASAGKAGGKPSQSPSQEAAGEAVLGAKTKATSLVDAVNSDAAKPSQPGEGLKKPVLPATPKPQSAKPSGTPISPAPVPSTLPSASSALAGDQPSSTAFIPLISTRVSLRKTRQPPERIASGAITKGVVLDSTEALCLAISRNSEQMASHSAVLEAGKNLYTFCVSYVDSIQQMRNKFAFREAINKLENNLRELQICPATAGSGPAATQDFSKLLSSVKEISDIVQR
T13 sequence (Q02156 whole entry): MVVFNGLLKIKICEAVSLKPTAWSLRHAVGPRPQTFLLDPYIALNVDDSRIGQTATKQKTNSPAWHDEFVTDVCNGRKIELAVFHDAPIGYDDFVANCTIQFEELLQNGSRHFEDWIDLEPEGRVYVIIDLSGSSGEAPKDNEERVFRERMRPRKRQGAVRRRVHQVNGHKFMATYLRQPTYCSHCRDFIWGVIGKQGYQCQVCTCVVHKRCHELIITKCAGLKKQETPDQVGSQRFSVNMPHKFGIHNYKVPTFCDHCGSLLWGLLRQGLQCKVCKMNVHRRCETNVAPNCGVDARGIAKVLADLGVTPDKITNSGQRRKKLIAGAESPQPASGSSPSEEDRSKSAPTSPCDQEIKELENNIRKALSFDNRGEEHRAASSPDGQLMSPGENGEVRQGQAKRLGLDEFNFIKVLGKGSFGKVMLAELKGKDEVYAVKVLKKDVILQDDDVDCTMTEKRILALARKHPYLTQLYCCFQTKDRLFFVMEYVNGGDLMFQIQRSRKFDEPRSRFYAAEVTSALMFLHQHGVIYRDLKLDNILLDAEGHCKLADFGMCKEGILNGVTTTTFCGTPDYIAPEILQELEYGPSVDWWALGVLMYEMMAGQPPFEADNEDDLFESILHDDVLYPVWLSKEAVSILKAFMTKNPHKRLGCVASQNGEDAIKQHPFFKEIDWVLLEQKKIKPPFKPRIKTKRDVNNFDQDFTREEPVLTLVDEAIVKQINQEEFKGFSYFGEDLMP
T14 sequence (Q9P0L2 whole entry): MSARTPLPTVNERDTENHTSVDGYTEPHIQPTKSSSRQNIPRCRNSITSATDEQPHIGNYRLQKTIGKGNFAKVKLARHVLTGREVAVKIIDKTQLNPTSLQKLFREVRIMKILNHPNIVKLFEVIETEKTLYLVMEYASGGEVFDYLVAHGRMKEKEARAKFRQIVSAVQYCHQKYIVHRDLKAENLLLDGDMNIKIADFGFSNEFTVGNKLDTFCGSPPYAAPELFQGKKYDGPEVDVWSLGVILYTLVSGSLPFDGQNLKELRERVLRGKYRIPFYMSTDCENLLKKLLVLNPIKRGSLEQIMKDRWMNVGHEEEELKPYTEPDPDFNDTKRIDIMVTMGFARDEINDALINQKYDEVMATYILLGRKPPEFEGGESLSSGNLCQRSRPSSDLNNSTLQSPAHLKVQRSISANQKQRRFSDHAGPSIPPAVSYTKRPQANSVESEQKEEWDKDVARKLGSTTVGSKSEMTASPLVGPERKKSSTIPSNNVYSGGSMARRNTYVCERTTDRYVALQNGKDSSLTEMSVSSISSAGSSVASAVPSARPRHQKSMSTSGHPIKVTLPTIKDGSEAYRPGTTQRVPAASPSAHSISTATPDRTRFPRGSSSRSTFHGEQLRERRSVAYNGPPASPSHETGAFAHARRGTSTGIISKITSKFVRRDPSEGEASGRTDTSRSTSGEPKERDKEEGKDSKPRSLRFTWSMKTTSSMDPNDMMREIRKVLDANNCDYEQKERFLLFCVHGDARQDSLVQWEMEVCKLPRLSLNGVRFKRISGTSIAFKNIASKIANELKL
T6 sequence (O15146 24-869): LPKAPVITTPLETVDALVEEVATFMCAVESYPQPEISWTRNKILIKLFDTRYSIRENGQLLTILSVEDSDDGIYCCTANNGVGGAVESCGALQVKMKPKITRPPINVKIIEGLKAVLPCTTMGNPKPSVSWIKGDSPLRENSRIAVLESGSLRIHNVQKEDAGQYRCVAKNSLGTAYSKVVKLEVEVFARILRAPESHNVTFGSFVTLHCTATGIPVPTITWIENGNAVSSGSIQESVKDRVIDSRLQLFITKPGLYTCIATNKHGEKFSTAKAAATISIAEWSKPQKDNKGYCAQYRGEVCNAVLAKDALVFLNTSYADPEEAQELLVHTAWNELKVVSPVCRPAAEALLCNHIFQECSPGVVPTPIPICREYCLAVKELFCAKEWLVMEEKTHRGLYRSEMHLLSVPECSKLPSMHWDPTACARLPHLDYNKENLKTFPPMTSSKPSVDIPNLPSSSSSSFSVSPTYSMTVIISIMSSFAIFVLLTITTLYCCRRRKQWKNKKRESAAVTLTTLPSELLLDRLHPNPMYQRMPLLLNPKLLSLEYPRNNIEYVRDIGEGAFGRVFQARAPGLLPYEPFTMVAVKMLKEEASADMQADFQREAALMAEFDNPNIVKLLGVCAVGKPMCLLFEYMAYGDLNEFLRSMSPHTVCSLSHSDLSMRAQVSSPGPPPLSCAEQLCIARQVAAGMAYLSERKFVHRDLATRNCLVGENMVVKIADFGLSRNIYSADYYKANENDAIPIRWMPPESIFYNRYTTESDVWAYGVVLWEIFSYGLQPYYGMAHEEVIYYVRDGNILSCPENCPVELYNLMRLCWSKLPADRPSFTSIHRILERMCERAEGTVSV
T4 sequence (P51817 whole entry): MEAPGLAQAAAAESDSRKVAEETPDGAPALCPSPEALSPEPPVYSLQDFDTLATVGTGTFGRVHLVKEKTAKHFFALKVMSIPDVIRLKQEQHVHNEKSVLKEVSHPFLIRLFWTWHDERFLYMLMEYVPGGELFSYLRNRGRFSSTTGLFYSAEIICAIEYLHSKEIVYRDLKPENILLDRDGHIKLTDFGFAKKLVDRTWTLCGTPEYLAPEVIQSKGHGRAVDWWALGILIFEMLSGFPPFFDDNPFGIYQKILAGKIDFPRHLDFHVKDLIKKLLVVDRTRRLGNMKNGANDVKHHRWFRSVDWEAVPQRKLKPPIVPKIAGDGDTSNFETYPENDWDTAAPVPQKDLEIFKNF
T12 sequence (Q2M2I8 whole entry): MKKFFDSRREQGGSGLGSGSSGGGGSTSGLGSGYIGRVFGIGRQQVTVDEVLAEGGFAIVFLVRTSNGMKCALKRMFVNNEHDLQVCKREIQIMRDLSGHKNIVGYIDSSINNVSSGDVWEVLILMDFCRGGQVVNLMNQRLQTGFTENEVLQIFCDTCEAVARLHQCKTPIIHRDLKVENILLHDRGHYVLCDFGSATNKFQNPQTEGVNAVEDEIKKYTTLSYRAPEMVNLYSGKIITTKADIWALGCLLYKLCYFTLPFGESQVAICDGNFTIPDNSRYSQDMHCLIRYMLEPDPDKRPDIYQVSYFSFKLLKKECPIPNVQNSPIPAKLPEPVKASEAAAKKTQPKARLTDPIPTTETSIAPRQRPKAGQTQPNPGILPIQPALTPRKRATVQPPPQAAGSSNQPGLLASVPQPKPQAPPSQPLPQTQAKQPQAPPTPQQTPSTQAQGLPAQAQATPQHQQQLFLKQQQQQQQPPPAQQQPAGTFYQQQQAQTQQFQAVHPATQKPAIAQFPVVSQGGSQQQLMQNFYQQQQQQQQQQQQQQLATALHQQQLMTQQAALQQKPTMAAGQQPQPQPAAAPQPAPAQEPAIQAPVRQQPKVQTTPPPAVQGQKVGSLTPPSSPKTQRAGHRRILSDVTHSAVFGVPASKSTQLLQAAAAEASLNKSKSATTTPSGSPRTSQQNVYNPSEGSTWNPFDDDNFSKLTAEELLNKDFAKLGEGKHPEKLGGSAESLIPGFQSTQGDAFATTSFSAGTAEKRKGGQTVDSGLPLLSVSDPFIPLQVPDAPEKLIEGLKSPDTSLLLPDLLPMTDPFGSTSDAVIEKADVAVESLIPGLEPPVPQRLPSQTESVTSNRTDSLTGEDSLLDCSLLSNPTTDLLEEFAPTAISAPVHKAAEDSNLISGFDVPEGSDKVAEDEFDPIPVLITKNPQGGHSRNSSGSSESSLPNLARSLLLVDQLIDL

As to `CCOc1ccc(-n2nnc3cnc(Nc4cnn(CC)c4)nc32)cc1` [Compound 2, 3-(4-Ethoxyphenyl)-N-(1-ethyl-1H-pyrazol-4-yl)-3H-[1,2,3]triazolo[4,5-d]pyrimidin-5-amine], the “kinase inhibition in standard broad kinase panel (in words)” value in [1] is “no significant kinase inhibition”. Also, the remaining activity at 0.5 µM turned out to be 88.9% at ABL1; 96.7% at MAP3K10 /MLK2; 100% at FLT3; 97.7% on PKX/PRKX; 88.8% on KIT; 100% at MUSK. The remaining activity at 0.5 µM at MST2 turned out to be 100%; at PDGFRB, 84.4%; on SRC, 99.1%; at FLT1/VEGFR1 it was 51.7%; on PKA/PRKACA, 100%; at AAK1 it was 73.5%. The results for the remaining activity at 0.5 µM on PKCe/PRKCE, on MARK1 and at SIK1/SNF1LK were 100%, 100% and 99.9%, respectively. Also, the IC50 against human GCN2 is 18.6 nM.

A word on the remaining activity: it is the share of the control activity or signal that is left under treatment. The IC50 is the midpoint of a concentration-inhibition curve.
